From patent publication EP4745135A1 (Gluetacs Therapeutics (Shanghai) Co., Ltd., priority 2023, dated 2025)

Key:
[1] = target: T1, human Cereblon WT GST-tagged protein (Homo sapiens, UniProt Q96SW2); assay: CRBN-binding affinity, HTRF (CEREBLON BINDING kit); details: for inhibition at 0.5 µM: read-out: Inhibition Rate at 0.5 µM (%); for inhibition at 2 µM: read-out: Inhibition Rate at 2 µM (%)
T1 construct: purchased CISBIO 64BDCRBNPEH

GSPT1 = assay: Western blot, degradation of substrate protein in hPBMCs; format: cell-based, Human; details: Western blot, 24 hours of compound treatment, compounds tested at 50 nM and 500 nM (concentration for the table not stated)
WEE1 = target: T2, WEE1 (Homo sapiens, UniProt P30291+Q96SW2); assay: as above; format: cell-based; details: Western blot, 24 hours of compound treatment, compounds tested at 50 nM and 500 nM (concentration for the table not stated)
T2 construct: effects of the compounds of the present disclosure on the expression of target proteins in cells; endogenous in cells; host or cells: human PBMCs (Milecell Biotechnologies)

IKZF2 = target: T3, IKZF2 (Homo sapiens, UniProt Q96SW2+Q9UKS7); assay: as above; format: cell-based; details: Western blot, 24 hours of compound treatment, compounds tested at 50 nM and 500 nM (concentration for the table not stated)
T3 construct: effects of the compounds of the present disclosure on the expression of target proteins in cells; endogenous in cells; host or cells: human PBMCs (Milecell Biotechnologies)

IKZF1 = target: T4, IKZF1 (Homo sapiens, UniProt Q13422+Q96SW2); assay: as above; format: cell-based; details: Western blot, 24 hours of compound treatment, compounds tested at 50 nM and 500 nM (concentration for the table not stated)
T4 construct: effects of the compounds of the present disclosure on the expression of target proteins in cells; endogenous in cells; host or cells: human PBMCs (Milecell Biotechnologies)

IKZF3 = target: T5, IKZF3 (Homo sapiens, UniProt Q96SW2+Q9UKT9); assay: as above; format: cell-based; details: Western blot, 24 hours of compound treatment, compounds tested at 50 nM and 500 nM (concentration for the table not stated)
T5 construct: effects of the compounds of the present disclosure on the expression of target proteins in cells; endogenous in cells; host or cells: human PBMCs (Milecell Biotechnologies)

CK1α = target: T6, CK1α (Homo sapiens, UniProt P48729+Q96SW2); assay: as above; format: cell-based; details: Western blot, 24 hours of compound treatment, compounds tested at 50 nM and 500 nM (concentration for the table not stated)
T6 construct: effects of the compounds of the present disclosure on the expression of target proteins in cells; endogenous in cells; host or cells: human PBMCs (Milecell Biotechnologies)
T6 sequence (P48729 whole entry): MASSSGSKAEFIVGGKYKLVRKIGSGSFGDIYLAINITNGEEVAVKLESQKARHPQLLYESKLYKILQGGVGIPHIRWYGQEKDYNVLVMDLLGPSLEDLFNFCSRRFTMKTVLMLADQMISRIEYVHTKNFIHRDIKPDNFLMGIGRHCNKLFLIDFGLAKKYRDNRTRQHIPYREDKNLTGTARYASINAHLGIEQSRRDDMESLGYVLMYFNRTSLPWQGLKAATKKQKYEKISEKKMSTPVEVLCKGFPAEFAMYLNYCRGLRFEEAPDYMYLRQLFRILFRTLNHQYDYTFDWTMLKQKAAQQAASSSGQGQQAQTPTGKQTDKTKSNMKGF
T6 sequence (Q96SW2 whole entry): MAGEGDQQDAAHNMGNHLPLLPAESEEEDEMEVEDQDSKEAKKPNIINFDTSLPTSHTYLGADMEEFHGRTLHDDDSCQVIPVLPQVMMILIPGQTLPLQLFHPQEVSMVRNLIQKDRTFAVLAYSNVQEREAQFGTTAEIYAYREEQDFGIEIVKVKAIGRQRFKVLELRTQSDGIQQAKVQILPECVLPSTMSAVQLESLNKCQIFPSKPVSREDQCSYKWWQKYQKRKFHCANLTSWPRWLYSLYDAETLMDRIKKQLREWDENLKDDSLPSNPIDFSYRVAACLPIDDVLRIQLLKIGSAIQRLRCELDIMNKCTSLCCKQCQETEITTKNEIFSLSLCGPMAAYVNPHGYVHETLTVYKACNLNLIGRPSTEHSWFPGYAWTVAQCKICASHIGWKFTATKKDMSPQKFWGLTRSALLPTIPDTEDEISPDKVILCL
T6 sequence (Q16531 whole entry partner): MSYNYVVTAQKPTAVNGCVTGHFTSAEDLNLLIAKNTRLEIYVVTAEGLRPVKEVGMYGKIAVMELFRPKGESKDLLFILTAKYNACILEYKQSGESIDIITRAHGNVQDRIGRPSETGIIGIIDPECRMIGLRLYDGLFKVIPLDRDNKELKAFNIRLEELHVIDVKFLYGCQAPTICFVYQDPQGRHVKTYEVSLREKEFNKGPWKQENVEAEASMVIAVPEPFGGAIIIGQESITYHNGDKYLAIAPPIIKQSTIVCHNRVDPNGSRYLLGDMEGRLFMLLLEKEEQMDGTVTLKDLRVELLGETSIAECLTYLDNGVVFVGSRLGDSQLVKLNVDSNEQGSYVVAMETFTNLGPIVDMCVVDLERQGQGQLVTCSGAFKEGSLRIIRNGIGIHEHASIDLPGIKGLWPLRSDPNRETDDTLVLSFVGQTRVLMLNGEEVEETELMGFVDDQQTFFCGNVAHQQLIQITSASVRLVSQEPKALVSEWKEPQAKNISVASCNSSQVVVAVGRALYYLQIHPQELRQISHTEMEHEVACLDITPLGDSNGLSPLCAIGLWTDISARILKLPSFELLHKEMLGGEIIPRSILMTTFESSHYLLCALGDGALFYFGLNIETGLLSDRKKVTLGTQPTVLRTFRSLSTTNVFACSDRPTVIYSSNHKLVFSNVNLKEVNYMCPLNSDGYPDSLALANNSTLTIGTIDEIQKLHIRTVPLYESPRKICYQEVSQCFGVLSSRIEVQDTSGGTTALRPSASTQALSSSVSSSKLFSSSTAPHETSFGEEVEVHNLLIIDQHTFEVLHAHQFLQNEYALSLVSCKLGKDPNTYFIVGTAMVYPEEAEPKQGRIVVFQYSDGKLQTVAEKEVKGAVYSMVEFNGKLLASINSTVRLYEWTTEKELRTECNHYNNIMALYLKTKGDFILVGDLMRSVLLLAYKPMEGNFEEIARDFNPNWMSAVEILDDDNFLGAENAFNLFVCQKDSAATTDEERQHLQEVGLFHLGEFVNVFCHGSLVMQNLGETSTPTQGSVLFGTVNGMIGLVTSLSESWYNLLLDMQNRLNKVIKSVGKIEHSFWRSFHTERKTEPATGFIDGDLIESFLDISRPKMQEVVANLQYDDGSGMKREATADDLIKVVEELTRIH

T3 sequence (Q9UKS7 whole entry): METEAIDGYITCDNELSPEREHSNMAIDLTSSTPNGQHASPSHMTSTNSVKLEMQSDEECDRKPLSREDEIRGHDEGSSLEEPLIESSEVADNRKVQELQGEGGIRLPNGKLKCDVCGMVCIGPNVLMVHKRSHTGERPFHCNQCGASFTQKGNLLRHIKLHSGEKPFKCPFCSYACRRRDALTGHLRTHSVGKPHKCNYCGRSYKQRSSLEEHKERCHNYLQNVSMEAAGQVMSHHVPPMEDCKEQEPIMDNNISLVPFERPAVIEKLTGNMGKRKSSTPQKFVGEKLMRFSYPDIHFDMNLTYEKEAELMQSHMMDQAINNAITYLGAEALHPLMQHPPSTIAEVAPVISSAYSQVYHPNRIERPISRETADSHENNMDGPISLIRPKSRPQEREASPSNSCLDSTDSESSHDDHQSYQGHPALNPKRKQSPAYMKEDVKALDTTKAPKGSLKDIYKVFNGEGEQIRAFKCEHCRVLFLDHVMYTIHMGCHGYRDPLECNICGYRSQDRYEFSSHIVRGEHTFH
T3 sequence (Q96SW2 whole entry): as the sequence (Q96SW2 whole entry) above
T3 sequence (Q16531 whole entry partner): as the sequence (Q16531 whole entry partner) above
T1 sequence (Q96SW2 whole entry): as the sequence (Q96SW2 whole entry) above
T5 sequence (Q9UKT9 whole entry): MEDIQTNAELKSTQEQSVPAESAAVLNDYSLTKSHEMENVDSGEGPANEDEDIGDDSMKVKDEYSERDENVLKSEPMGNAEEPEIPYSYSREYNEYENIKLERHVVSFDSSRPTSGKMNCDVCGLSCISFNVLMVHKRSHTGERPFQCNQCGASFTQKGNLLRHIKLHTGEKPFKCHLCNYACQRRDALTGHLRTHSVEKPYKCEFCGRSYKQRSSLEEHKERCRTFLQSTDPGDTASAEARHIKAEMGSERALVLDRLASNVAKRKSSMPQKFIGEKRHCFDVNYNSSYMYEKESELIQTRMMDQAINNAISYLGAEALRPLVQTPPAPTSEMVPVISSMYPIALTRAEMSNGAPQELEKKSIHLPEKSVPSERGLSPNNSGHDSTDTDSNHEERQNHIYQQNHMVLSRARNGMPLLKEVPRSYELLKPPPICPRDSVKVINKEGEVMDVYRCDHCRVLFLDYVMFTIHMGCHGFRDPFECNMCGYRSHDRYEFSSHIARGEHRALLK
T5 sequence (Q96SW2 whole entry): as the sequence (Q96SW2 whole entry) above
T5 sequence (Q16531 whole entry partner): as the sequence (Q16531 whole entry partner) above
T4 sequence (Q13422 whole entry): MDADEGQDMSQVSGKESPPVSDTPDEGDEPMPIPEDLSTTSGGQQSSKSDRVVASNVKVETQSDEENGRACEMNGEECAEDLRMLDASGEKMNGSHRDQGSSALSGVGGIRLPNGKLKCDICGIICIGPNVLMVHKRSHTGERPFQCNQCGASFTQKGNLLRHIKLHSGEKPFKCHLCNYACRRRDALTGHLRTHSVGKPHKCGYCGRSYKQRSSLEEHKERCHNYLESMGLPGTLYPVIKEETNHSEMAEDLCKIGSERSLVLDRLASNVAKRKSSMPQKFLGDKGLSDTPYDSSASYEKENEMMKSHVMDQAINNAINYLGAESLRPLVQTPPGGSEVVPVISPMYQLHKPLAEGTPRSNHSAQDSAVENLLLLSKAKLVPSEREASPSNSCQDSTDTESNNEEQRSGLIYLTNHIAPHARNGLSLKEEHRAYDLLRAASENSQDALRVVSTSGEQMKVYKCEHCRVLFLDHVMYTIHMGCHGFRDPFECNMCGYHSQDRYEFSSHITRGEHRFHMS
T4 sequence (Q96SW2 whole entry): as the sequence (Q96SW2 whole entry) above
T4 sequence (Q16531 whole entry partner): as the sequence (Q16531 whole entry partner) above
T2 sequence (P30291 whole entry): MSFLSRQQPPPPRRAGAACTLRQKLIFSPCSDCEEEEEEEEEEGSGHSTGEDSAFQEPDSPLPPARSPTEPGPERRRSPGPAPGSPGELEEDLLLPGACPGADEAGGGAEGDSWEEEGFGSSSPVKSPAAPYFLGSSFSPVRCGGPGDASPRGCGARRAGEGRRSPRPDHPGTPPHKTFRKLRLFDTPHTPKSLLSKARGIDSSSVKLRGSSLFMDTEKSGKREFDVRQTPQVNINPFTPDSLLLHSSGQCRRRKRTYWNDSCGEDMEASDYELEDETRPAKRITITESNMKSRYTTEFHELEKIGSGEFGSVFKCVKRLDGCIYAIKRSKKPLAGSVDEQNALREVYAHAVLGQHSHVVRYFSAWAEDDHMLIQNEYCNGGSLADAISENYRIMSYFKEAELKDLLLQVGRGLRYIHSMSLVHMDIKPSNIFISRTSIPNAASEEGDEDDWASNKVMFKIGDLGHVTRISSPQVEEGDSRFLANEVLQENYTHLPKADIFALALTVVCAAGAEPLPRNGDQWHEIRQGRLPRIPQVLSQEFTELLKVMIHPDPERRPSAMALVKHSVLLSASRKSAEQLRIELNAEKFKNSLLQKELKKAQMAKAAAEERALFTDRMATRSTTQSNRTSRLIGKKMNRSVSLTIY
T2 sequence (Q96SW2 whole entry): as the sequence (Q96SW2 whole entry) above
T2 sequence (Q16531 whole entry partner): as the sequence (Q16531 whole entry partner) above

Row | SMILES | inhibition at 0.5 µM [1] [%] | inhibition at 2 µM [1] [%] | GSPT1 substrate protein remaining % (GSPT1) | Wee1 substrate protein remaining % (WEE1) | IKZF2 substrate protein remaining % (IKZF2) | IKZF 1 substrate protein remaining % (IKZF1) | IKZF3 substrate protein remaining % (IKZF3) | CK1α substrate protein remaining % (CK1α)
1 | O=C1CCC(N2Cc3cc(CN4CCC(c5ccc(Br)cc5)CC4)ccc3C2=S)C(=O)N1 (stereo not shown) [GT-08618, 3-(5-((4-(4-bromophenyl)piperidin-1-yl)methyl)-1-thioxoisoindolin-2-yl)piperidine-2,6-dione] | 30 to 40 | 60 to 80 | A (0% ≤ substrate protein remaining % ≤ 80%) | B (80%< substrate protein remaining %≤ 100%) | B (80%< substrate protein remaining %≤ 100%) | B (80%< substrate protein remaining %≤ 100%) | B (80%< substrate protein remaining %≤ 100%) | B (80%< substrate protein remaining %≤ 100%)
2 | O=C1CCC(N2Cc3cc(CN4CCC(c5ccc(F)cc5)CC4)ccc3C2=S)C(=O)N1 (stereo not shown) [GT-08621, 3-(5-((4-(4-fluorophenyl)piperidin-1-yl)methyl)-1-thioxoisoindolin-2-yl)piperidine-2,6-dione] | 53 to 60 | 80 to 100 | A (0% ≤ substrate protein remaining % ≤ 80%) | B (80%< substrate protein remaining %≤ 100%) | A (0% ≤ substrate protein remaining % ≤ 80%) | B (80%< substrate protein remaining %≤ 100%) | B (80%< substrate protein remaining %≤ 100%) | B (80%< substrate protein remaining %≤ 100%)
3 | O=C1CCC(N2Cc3cc(CN4CCN(c5cc(F)cc(F)c5)CC4)ccc3C2=S)C(=O)N1 (stereo not shown) [GT-08628, 3-(5-((4-(3,5-difluorophenyl)piperazin-1-yl)methyl)-1-thioxoisoindolin-2-yl)piperidine-2,6-dione] | 53 to 60 | 80 to 100 | A (0% ≤ substrate protein remaining % ≤ 80%) | B (80%< substrate protein remaining %≤ 100%) | B (80%< substrate protein remaining %≤ 100%) | B (80%< substrate protein remaining %≤ 100%) | B (80%< substrate protein remaining %≤ 100%) | B (80%< substrate protein remaining %≤ 100%)
4 | O=C1CCC(N2Cc3c(CN4CCN(c5cc(Cl)cc(Cl)c5)CC4)cccc3C2=S)C(=O)N1 (stereo not shown) [GT-08629, 3-(4-((4-(3,5-dichlorophenyl)piperazin-1-yl)methyl)-1-thioxoisoindolin-2-yl)piperidine-2,6-dione] | 40 to 53 | 60 to 80 | B (80%< substrate protein remaining %≤ 100%) | A (0% ≤ substrate protein remaining % ≤ 80%) | B (80%< substrate protein remaining %≤ 100%) | B (80%< substrate protein remaining %≤ 100%) | B (80%< substrate protein remaining %≤ 100%) | A (0% ≤ substrate protein remaining % ≤ 80%)
5 | O=C1CCC(N2Cc3c(CN4CCN(c5c(F)cccc5F)CC4)cccc3C2=S)C(=O)N1 (stereo not shown) [GT-08630, 3-(4-((4-(2,6-difluorophenyl)piperazin-1-yl)methyl)-1-thioxoisoindolin-2-yl)piperidine-2,6-dione] | 53 to 60 | 60 to 80 | A (0% ≤ substrate protein remaining % ≤ 80%) | A (0% ≤ substrate protein remaining % ≤ 80%) | B (80%< substrate protein remaining %≤ 100%) | B (80%< substrate protein remaining %≤ 100%) | B (80%< substrate protein remaining %≤ 100%) | B (80%< substrate protein remaining %≤ 100%)
6 | O=C1CCC(N2Cc3c(CN4CCN(c5ccc(F)c(F)c5)CC4)cccc3C2=S)C(=O)N1 (stereo not shown) [GT-08631, 3-(4-((4-(3,4-difluorophenyl)piperazin-1-yl)methyl)-1-thioxoisoindolin-2-yl)piperidine-2,6-dione] | 60 to 80 | 80 to 100 | B (80%< substrate protein remaining %≤ 100%) | A (0% ≤ substrate protein remaining % ≤ 80%) | B (80%< substrate protein remaining %≤ 100%) | B (80%< substrate protein remaining %≤ 100%) | B (80%< substrate protein remaining %≤ 100%) | B (80%< substrate protein remaining %≤ 100%)

Second part, led by results:

Row | inhibition at 0.5 µM [1] [%] | inhibition at 2 µM [1] [%] | SMILES | GSPT1 substrate protein remaining % (GSPT1) | Wee1 substrate protein remaining % (WEE1) | IKZF2 substrate protein remaining % (IKZF2) | IKZF 1 substrate protein remaining % (IKZF1) | IKZF3 substrate protein remaining % (IKZF3) | CK1α substrate protein remaining % (CK1α)
7 | 30 to 40 | 60 to 80 | O=C1CCC(N2Cc3cc(CN4CCN(c5ccc(Cl)cc5Cl)CC4)ccc3C2=S)C(=O)N1 (stereo not shown) [GT-08604, 3-(5-((4-(2,4-dichlorophenyl)piperazin-1-yl)methyl)-1-thioxoisoindolin-2-yl)piperidine-2,6-dione] | A (0% ≤ substrate protein remaining % ≤ 80%) | B (80%< substrate protein remaining %≤ 100%) | B (80%< substrate protein remaining %≤ 100%) | B (80%< substrate protein remaining %≤ 100%) | B (80%< substrate protein remaining %≤ 100%) | B (80%< substrate protein remaining %≤ 100%)
8 | 60 to 80 | 80 to 100 | O=C1CCC(N2Cc3cc(CN4CCN(c5ccc(F)cc5F)CC4)ccc3C2=S)C(=O)N1 (stereo not shown) [GT-08613, 3-(5-((4-(2,4-difluorophenyl)piperazin-1-yl)methyl)-1-thioxoisoindolin-2-yl)piperidine-2,6-dione] | A (0% ≤ substrate protein remaining % ≤ 80%) | B (80%< substrate protein remaining %≤ 100%) | B (80%< substrate protein remaining %≤ 100%) | B (80%< substrate protein remaining %≤ 100%) | B (80%< substrate protein remaining %≤ 100%) | B (80%< substrate protein remaining %≤ 100%)
9 | 60 to 80 | 80 to 100 | O=C1CCC(N2Cc3cc(CN4CCN(c5cc(F)ccc5F)CC4)ccc3C2=S)C(=O)N1 (stereo not shown) [GT-08625, 3-(5-((4-(2,5-difluorophenyl)piperazin-1-yl)methyl)-1-thioxoisoindolin-2-yl)piperidine-2,6-dione] | A (0% ≤ substrate protein remaining % ≤ 80%) | B (80%< substrate protein remaining %≤ 100%) | B (80%< substrate protein remaining %≤ 100%) | B (80%< substrate protein remaining %≤ 100%) | B (80%< substrate protein remaining %≤ 100%) | A (0% ≤ substrate protein remaining % ≤ 80%)
10 | 60 to 80 | 80 to 100 | O=C1CCC(N2Cc3cc(CN4CCN(c5c(F)cccc5F)CC4)ccc3C2=S)C(=O)N1 (stereo not shown) [GT-08626, 3-(5-((4-(2,6-difluorophenyl)piperazin-1-yl)methyl)-1-thioxoisoindolin-2-yl)piperidine-2,6-dione] | A (0% ≤ substrate protein remaining % ≤ 80%) | B (80%< substrate protein remaining %≤ 100%) | B (80%< substrate protein remaining %≤ 100%) | B (80%< substrate protein remaining %≤ 100%) | B (80%< substrate protein remaining %≤ 100%) | B (80%< substrate protein remaining %≤ 100%)
11 | 60 to 80 | 80 to 100 | O=C1CCC(N2Cc3cc(CN4CCN(c5ccc(F)c(F)c5)CC4)ccc3C2=S)C(=O)N1 (stereo not shown) [GT-08627, 3-(5-((4-(3,4-difluorophenyl)piperazin-1-yl)methyl)-1-thioxoisoindolin-2-yl)piperidine-2,6-dione] | A (0% ≤ substrate protein remaining % ≤ 80%) | B (80%< substrate protein remaining %≤ 100%) | B (80%< substrate protein remaining %≤ 100%) | B (80%< substrate protein remaining %≤ 100%) | B (80%< substrate protein remaining %≤ 100%) | B (80%< substrate protein remaining %≤ 100%)
